According to ChEMBL document CHEMBL3124779, “Discovery of ABT-267, a pan-genotypic inhibitor of HCV NS5A” (J Med Chem, 2014):

Tests used:
[1] = test system: Hepatitis C virus; assay: Antiviral activity against HCV1b Con1 infected in human HuH7 cells assessed as inhibition of viral replication after 4 days by luciferase reporter gene assay in presence of 40% human plasma; type: functional, organism-based, Hepacivirus hominis; settings: isolate Con1, Huh-7, Plasma, 96 h
[2] = test system: Hepatitis C virus; assay: Resistant ratio of EC50 for wild type HCV1a to EC50 for HCV1a harboring NS5A Y93H mutant infected in human HuH7 cells; type: functional, Hepacivirus hominis, subtype 1a, Huh-7
[3] = species: Homo sapiens; assay: Toxicity in HCV1 infected patient assessed as mortality at 5 to 200 mg qd for 3 days; type: organism-based; settings: in vivo, 72 h
[4] = test system: Hepatitis C virus; assay: Resistant ratio of EC50 for wild type HCV1b to EC50 for HCV1b harboring NS5A Y93H mutant infected in human HuH7 cells; type: functional, Hepacivirus hominis, genotype 1b, Huh-7
[5] = test system: Hepatitis C virus; assay: Antiviral activity against HCV1b Con1 infected in human HuH7 cells assessed as inhibition of viral replication after 4 days by luciferase reporter gene assay; type: functional, organism-based, Hepacivirus hominis; settings: isolate Con1, Huh-7, 96 h
[6] = test system: Hepatitis C virus; assay: Antiviral activity against HCV1b harboring NS5A L31M and Y93H mutant infected in human HuH7 cells assessed as inhibition of viral replication after 4 days by luciferase reporter gene assay; type: functional, Hepacivirus hominis, genotype 1b, Huh-7
[7] = Cmax in dog at 2.5 mg/kg, po; type: ADME, organism-based, Canis lupus familiaris; design: dose 2.5 mg/kg, route oral; settings: in vivo
[8] = test system: Hepatitis C virus; assay: Ratio of EC50 for HCV1a H77 infected in human HuH7 cells in presence of 40% human plasma to EC50 for HCV1a H77 infected in human HuH7 cells in absence of 40% human plasma; type: functional, Hepacivirus hominis, genotype 1a H77, Huh-7
[9] = AUC in dog at 2.5 mg/kg, po; type: ADME, organism-based, Canis lupus familiaris; design: dose 2.5 mg/kg, route oral; settings: plasma
[10] = Half life in dog at 1 mg/kg, iv; type: ADME, organism-based, Canis lupus familiaris; design: dose 1 mg/kg, route intravenous; settings: in vivo
[11] = test system: Hepatitis C virus; assay: Antiviral activity against HCV1b harboring NS5A L31F mutant infected in human HuH7 cells assessed as inhibition of viral replication after 4 days by luciferase reporter gene assay; type: functional, Hepacivirus hominis, genotype 1b, Huh-7
[12] = Volume of distribution at steady state in dog at 1 mg/kg, iv; type: ADME, organism-based, Canis lupus familiaris; design: dose 1 mg/kg, route intravenous; settings: in vivo, read-out: Vdss
[13] = Clearance in rat at 3 mg/kg, iv; type: ADME, organism-based; design: dose 3 mg/kg, route intravenous; settings: in vivo
[14] = test system: Hepatitis C virus; assay: Antiviral activity against HCV2a infected in human HuH7 cells assessed as inhibition of viral replication after 4 days by luciferase reporter gene assay; type: functional, organism-based, Hepacivirus hominis; settings: genotype 2a, Huh-7, 96 h
[15] = test system: Hepatitis C virus; assay: Antiviral activity against HCV1a harboring NS5A H58D mutant infected in human HuH7 cells assessed as inhibition of viral replication after 4 days by luciferase reporter gene assay; type: functional, Hepacivirus hominis, subtype 1a, Huh-7
[16] = test system: Hepatitis C virus; assay: Antiviral activity against HCV6a infected in human HuH7 cells assessed as inhibition of viral replication after 4 days by luciferase reporter gene assay; type: functional, organism-based, Hepacivirus hominis; settings: genotype 6a, Huh-7, 96 h
[17] = Lipophilicity, log D of the compound at pH 7.4 by HPLC analysis; type: physicochemical; settings: buffer
[18] = Metabolic stability in human liver microsomes assessed as compound remaining after 30 mins; type: ADME; settings: read-out: Stability
[19] = Half life in rat at 3 mg/kg, iv; type: ADME, organism-based; design: dose 3 mg/kg, route intravenous; settings: in vivo
[20] = species: Homo sapiens; assay: Toxicity in HCV1 infected patient assessed as adverse event at 5 to 200 mg qd for 3 days; type: organism-based; settings: in vivo, 72 h
[21] = test system: Hepatitis C virus; assay: Resistant ratio of EC50 for wild type HCV1b to EC50 for HCV1b harboring NS5A L28T mutant infected in human HuH7 cells; type: functional, Hepacivirus hominis, genotype 1b, Huh-7
[22] = test system: Hepatitis C virus; assay: Resistant ratio of EC50 for wild type HCV1b to EC50 for HCV1b harboring NS5A L28M and Y93H mutant infected in human HuH7 cells; type: functional, Hepacivirus hominis, genotype 1b, Huh-7
[23] = test system: Hepatitis C virus; assay: Antiviral activity against HCV1b harboring NS5A R30Q and Y93H mutant infected in human HuH7 cells assessed as inhibition of viral replication after 4 days by luciferase reporter gene assay; type: functional, Hepacivirus hominis, genotype 1b, Huh-7
[24] = test system: Hepatitis C virus; assay: Antiviral activity against HCV1a H77 infected in human HuH7 cells assessed as inhibition of viral replication after 4 days by luciferase reporter gene assay; type: functional, organism-based, Hepacivirus hominis; settings: genotype 1a H77, Huh-7, 96 h
[25] = test system: Hepatitis C virus; assay: Resistant ratio of EC50 for wild type HCV1a to EC50 for HCV1a harboring NS5A Y93N mutant infected in human HuH7 cells; type: functional, Hepacivirus hominis, subtype 1a, Huh-7
[26] = test system: Hepatitis C virus; assay: Resistant ratio of EC50 for wild type HCV1a to EC50 for HCV1a harboring NS5A M28V mutant infected in human HuH7 cells; type: functional, Hepacivirus hominis, subtype 1a, Huh-7
[27] = test system: Hepatitis C virus; assay: Antiviral activity against HCV1b harboring NS5A L31V mutant infected in human HuH7 cells assessed as inhibition of viral replication after 4 days by luciferase reporter gene assay; type: functional, Hepacivirus hominis, genotype 1b, Huh-7
[28] = test system: Hepatitis C virus; assay: Resistant ratio of EC50 for wild type HCV1a to EC50 for HCV1a harboring NS5A M28T mutant infected in human HuH7 cells; type: functional, Hepacivirus hominis, subtype 1a, Huh-7
[29] = test system: Hepatitis C virus; assay: Resistant ratio of EC50 for wild type HCV1a to EC50 for HCV1a harboring NS5A H58D mutant infected in human HuH7 cells; type: functional, Hepacivirus hominis, subtype 1a, Huh-7
[30] = Metabolic stability in rat liver microsomes assessed as compound remaining after 30 mins; type: ADME; settings: read-out: Stability
[31] = Clearance in dog at 1 mg/kg, iv; type: ADME, organism-based, Canis lupus familiaris; design: dose 1 mg/kg, route intravenous; settings: in vivo
[32] = Oral bioavailability in rat at 3 mg/kg; type: ADME, organism-based; settings: in vivo

With `COC(=O)N[C@H](C(=O)N1CCC[C@H]1C(=O)Nc1ccc([C@@H]2CC[C@@H](c3ccc(NC(=O)[C@@H]4CCCN4C(=O)[C@@H](NC(=O)OC)C(C)C)cc3)N2c2ccc(C(C)(C)C)cc2)cc1)C(C)C` [OMBITASVIR] the EC50 [1] was 0.056 nM, the “Ratio EC50” value [2] was 41382 and the Activity [3] was “Non-toxic”. The “Ratio EC50” value [4] was 77, the EC50 [5] was 0.005 nM and the Efficacy [6] was 11%. For the same molecule, the Cmax [7] was 640 ng/mL, the “Ratio EC50” value [8] was 13 and the AUC [9] was 8000 ng·h/mL. It also gave a half-life [10] of 7.9 h, an Efficacy [11] of 127% and a Vd [12] of 1.8 L/kg. For the same molecule, the clearance [13] was 10.8 mL/min/kg, the EC50 [14] was 0.0124 nM and the Efficacy [15] was 66%. For the same molecule, the EC50 [16] was 0.415 nM, the logD [17] was 5.4 and the remaining at 0.5 h [18] was 60%. The half-life [19] was 9.9 h, the Activity [20] was “Non-toxic” and the “Ratio EC50” value [21] was 661. For the same molecule, the “Ratio EC50” value [22] was 415, the Efficacy [23] was 60% and the EC50 [24] was 0.014 nM. For the same molecule, the “Ratio EC50” value [25] was 66739, the “Ratio EC50” value [26] was 58 and the Efficacy [27] was 86%. For the same molecule, the “Ratio EC50” value [28] was 8965, the “Ratio EC50” value [29] was 243 and the remaining at 0.5 h [30] was 73%. It also gave a clearance [31] of 3 mL/min/kg and a bioavailability [32] of 6.2%.
